Data reported in US8901315B2, “Thienopyrazole derivative having PDE7 inhibitory activity” (Daiichi Sankyo Company, Limited, priority 2004, dated 2014).

Assays:
[1] = molecular target: PDE 7 (phosphodiesterase VII) (Homo sapiens (Human), UniProt Q13946); assay: PDE 7 inhibiting effect (3H-cAMP hydrolysis, PDE 7 active fraction from MOLT-4 cells); type: biochemical; conditions: PDE 7 fraction from MOLT-4 cells, 0.064 μM cAMP, 10 μM rolipram, 2 hours at 25° C.; read-out: PDE7 IC50
Summary of the method: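 ³H-cAMP hydrolysis by a PDE7-active fraction was followed, and the reaction was worked up with a Sephadex-QAE suspension (10 mM HEPES-Na, pH 7.0). Enzyme came from MOLT-4 cell soluble extract (pH 7.5 Tris buffer, 100,000×G supernatant), fractionated by HiTrap Q anion exchange with a 0–0.8 M NaCl gradient.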

[2] = molecular target: PDE 4 (phosphodiesterase IV); assay: PDE 4 inhibiting effect (3H-cAMP hydrolysis, PDE 4 active fraction from Balb/c mouse liver); type: biochemical; conditions: PDE 4 fraction from Balb/c mice liver, 0.064 μM cAMP, 2 hours at 25° C.; read-out: PDE4 IC50
Summary of the method: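 Activity was measured as 3H-cAMP hydrolysis, with Sephadex-QAE added after the reaction. The enzyme was a PDE4-active fraction from 12-week male Balb/c mouse liver, taken from the ultracentrifuged soluble fraction by DEAE sepharose chromatography (0.05-1 M sodium acetate gradient, pH 6.5 buffer).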

PDE 7 (phosphodiesterase VII), sequence (Q13946 whole entry): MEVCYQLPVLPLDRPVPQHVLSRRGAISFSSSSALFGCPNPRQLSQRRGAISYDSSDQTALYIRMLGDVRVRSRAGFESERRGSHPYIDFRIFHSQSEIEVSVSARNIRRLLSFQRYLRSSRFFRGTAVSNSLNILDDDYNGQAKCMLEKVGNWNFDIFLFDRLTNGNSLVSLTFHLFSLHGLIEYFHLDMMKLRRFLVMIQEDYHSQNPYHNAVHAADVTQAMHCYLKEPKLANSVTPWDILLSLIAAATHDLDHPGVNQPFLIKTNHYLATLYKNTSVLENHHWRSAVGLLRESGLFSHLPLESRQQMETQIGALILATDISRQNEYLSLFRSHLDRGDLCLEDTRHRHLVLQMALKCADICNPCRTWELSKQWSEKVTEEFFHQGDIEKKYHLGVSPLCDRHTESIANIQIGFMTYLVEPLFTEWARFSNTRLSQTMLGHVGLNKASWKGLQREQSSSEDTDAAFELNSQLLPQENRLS

Cc1nn(C2CCCCC2)c2sc(C(=O)Nc3ccc(CN4CCC(O)CC4)nc3)cc12 [Example 413, 1-Cyclohexyl-N-{6-[(4-hydroxy-1-piperidinyl)methyl]-3-pyridinyl}-3-methyl-1H-thieno[2,3-c]pyrazole-5-carboxamide]
IC50 [1]: 30 nM | IC50 [2]: 2500 nM

CC(=O)N1CCN(Cc2ccc(NC(=O)c3cc4c(C)nn(C5CCCCC5)c4s3)cn2)CC1 [Example 414, N-{6-[(4-Acetyl-1-piperazinyl)methyl]-3-pyridinyl}-1-cyclohexyl-3-methyl-1H-thieno[2,3-c]pyrazole-5-carboxamide]
IC50 [1]: 35 nM | IC50 [2]: 2800 nM

Cc1nn(C2CCOCC2)c2sc(C(=O)N[C@H]3CC[C@H](N4CCN(C)CC4=O)CC3)cc12 [Example 415, 3-Methyl-N-[trans-4-(4-methyl-2-oxo-piperazinyl)cyclohexyl]-1-tetrahydro-2H-pyran-4-yl-1H-thieno[2,3-c]pyrazole-5-carboxamide]
IC50 [1]: 93 nM | IC50 [2]: 5100 nM

Cc1nn(C2CCCCC2)c2sc(C(=O)N[C@H]3CC[C@H](N4CCN(C)CC4=O)CC3)cc12 [Example 416, 1-Cyclohexyl-3-methyl-N-[trans-4-(4-methyl-2-oxo-1-piperazinyl)-cyclohexyl]-1H-thieno[2,3-c]pyrazole-5-carboxamide]
IC50 [1]: 17 nM | IC50 [2]: 1300 nM

Cc1nn(C2CCOCC2)c2sc(C(=O)N[C@H]3CC[C@H](N4CCNC(=O)C4)CC3)cc12 [Example 417, 3-Methyl-N-[trans-4-(3-oxo-piperazinyl)cyclohexyl]-1-tetrahydro-2H-pyran-4-yl-1H-thieno[2,3-c]pyrazole-5-carboxamide]
IC50 [1]: 63 nM | IC50 [2]: 7000 nM

Cc1nn(C2CCOCC2)c2sc(C(=O)N[C@H]3CC[C@H](N4CCN(C)C(=O)C4)CC3)cc12 [Example 419, 3-Methyl-N-[trans-4-(4-methyl-3-oxo-1-piperazinyl)cyclohexyl]-1-tetrahydro-2H-pyran-4-yl-1H-thieno[2,3-c]pyrazole-5-carboxamide]
IC50 [1]: 29 nM | IC50 [2]: 5700 nM

Cc1nn(C2CCOCC2)c2sc(C(=O)N[C@H]3CC[C@H](N4CCC(CO)CC4)CC3)cc12 [Example 423]
IC50 [1]: 72 nM | IC50 [2]: 8100 nM

Cc1nn(C2CCOCC2)c2sc(C(=O)N[C@H]3CC[C@H](N4CCC(O)CC4)CC3)cc12 [Example 425, N-[trans-4-(4-Hydroxy-1-piperidinyl)cyclohexyl]-3-methyl-1-tetrahydro-2H-pyran-4-yl-1H-thieno[2,3-c]pyrazole-5-carboxamide]
IC50 [1]: 90 nM | IC50 [2]: 13000 nM

Cc1nn(C2CCOCC2)c2sc(C(=O)N[C@H]3CC[C@H](N4CCC(C(=O)N(C)C)CC4)CC3)cc12 [Example 428, N-(trans-4-{4-[(Dimethylamino)carbonyl]-1-piperidinyl}cyclohexyl)-3-methyl-1-tetrahydro-2H-pyran-4-yl-1H-thieno[2,3-c]pyrazole-5-carboxamide]
IC50 [1]: 50 nM | IC50 [2]: 9700 nM

CCN1CCN([C@H]2CC[C@H](NC(=O)c3cc4c(C)nn(C5CCOCC5)c4s3)CC2)CC1=O [Example 436, N-[trans-4-(4-Ethyl-3-oxo-1-piperazinyl)cyclohexyl]-3-methyl-1-tetrahydro-2H-pyran-4-yl-1H-thieno[2,3-c]pyrazole-5-carboxamide]
IC50 [1]: 30 nM | IC50 [2]: 7200 nM

Cc1nn(C2CCOCC2)c2sc(C(=O)Nc3ccc(N4CCN(C)CC4=O)cc3)cc12 [Example 440, 3-Methyl-N-[4-(4-methyl-2-oxo-piperazinyl)phenyl]-1-tetrahydro-2H-pyran-4-yl-1H-thieno[2,3-c]pyrazole-5-carboxamide]
IC50 [1]: 97 nM | IC50 [2]: 28000 nM
